Reference: patent publication US11091478B2 (Fochon Pharmaceuticals, Ltd., priority 2017, dated 2021)
Where two headings read alike, the source gives them in different places.

Key:
RS4;11 cells = assay: Cell proliferation assay (MTS), RS4;11 cells, 72 h; type: cell-based
Outline: (§1)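 Cells in RPMI-1640 with 10% FBS were seeded at 5000/well, left overnight at 37° C., 5% CO2, then exposed to compound at 10000 down to 1.5 nM (nine concentrations) for 72 h (RS4;11) or 120 h (DOHH2). Viability was read by MTS, 2 h, absorbance at 490/650 nm; IC50 calculated.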

DOHH2 cells = assay: Cell proliferation assay (MTS), DOHH2 cells, 120 h; type: cell-based
Outline: as §1

| SMILES | IC50 (RS4;11 cells; Homo sapiens, RS4-11, 72 h) [nM] | IC50 (DOHH2 cells; Homo sapiens, DOHH-2, 120 h) [nM] | IC50 (RS4;11 cells) [nM] | IC50 (DOHH2 cells) [nM] |
| --- | --- | --- | --- | --- |
| CCN=S1(=O)CCN(CC[C@@H]2COc3cc(S(=O)(=O)NC(=O)c4ccc(N5CCN(CC6=C(c7ccc(Cl)cc7)CC(C)(C)CC6)CC5)cc4Oc4cnc5[nH]ccc5c4)cc([N+](=O)[O-])c3N2)CC1 [Example 2-128, (R)-2-((1H-pyrrolo[2,3-b]pyridin-5-yl)oxy)-4-(4-((4′-chloro-5,5-dimethyl-3,4,5,6-tetra-hydro-[1,1′-biphenyl]-2-yl)methyl)piperazin-1-yl)-N-((3-(2-(1-(ethylimino)-1-oxido-1λ^6-thiomorpholino)ethyl)-5-nitro-3,4-di-hydro-2H-benzo[b][1,4]oxazin-7-yl)sulfonyl) benzamide] | 20 | 28 | – | – |
| CC1(C)CCC(CN2CCN(c3ccc(C(=O)NS(=O)(=O)c4cc5c(c([N+](=O)[O-])c4)N[C@@H](CC(=O)N4CCOCC4)CO5)c(Oc4cnc5[nH]ccc5c4)c3)CC2)=C(c2ccc(Cl)cc2)C1 [Example 2-142, (S)-2-((1H-pyrrolo[2,3-b]pyridin-5-yl)oxy)-4-(4-((4′-chloro-5,5-dimethyl-3,4,5,6-tetra-hydro-[1,1′-biphenyl]-2-yl)methyl)piperazin-1-yl)-N-((3-(2-morpholino-2-oxoethyl)-5-nitro-3,4-dihydro-2H-benzo[b][1,4]oxazin-7-yl)sulfonyl)benzamide] | 3 | 28 | – | – |
| COc1ccc(CC2COc3cc(S(=O)(=O)NC(=O)c4ccc(N5CCN(CC6=C(c7ccc(Cl)cc7)CC(C)(C)CC6)CC5)cc4Oc4cnc5[nH]ccc5c4)cc([N+](=O)[O-])c3N2)nc1 (centres unmarked) [Example 2-161, 2-((1H-pyrrolo[2,3-b]pyridin-5-yl)oxy)-4-(4-((4′-chloro-5,5-dimethyl-3,4,5,6-tetrahydro-[1,1′-biphenyl]-2-yl)methyl)piperazin-1-yl)-N-((3-((5-methoxypyridin-2-yl)methyl)-5-nitro-3,4-dihydro-2H-benzo[b][1,4]oxa-zin-7-yl)sulfonyl)benzamide] | 17 | 20 | – | – |
| CC1(C)CCC(CN2CCN(c3ccc(C(=O)NS(=O)(=O)c4cc5c(c([N+](=O)[O-])c4)N[C@@H](CCN4CCOCC4)CO5)c(Oc4cnc5[nH]ccc5c4)c3)CC2)=C(c2ccc(Cl)cc2)C1 [Example 2-10, (S)-2-((1H-pyrrolo[2,3-b]pyridin-5-yl)oxy)-4-(4-((4′-chloro-5,5-dimethyl-3,4,5,6-tetra-hydro-[1,1′-biphenyl]-2-yl)methyl)piperazin-1-yl)-N-((3-(2-morpholinoethyl)-5-nitro-3,4-dihydro-2H-benzo[b][1,4]oxazin-7-yl)sulfonyl)benzamide] | 9 | 28 | – | – |
| CN1CCN(CC[C@H]2Cc3cc(S(=O)(=O)NC(=O)c4ccc(N5CCN(CC6=C(c7ccc(Cl)cc7)CC(C)(C)CC6)CC5)cc4Oc4cnc5[nH]ccc5c4)cc([N+](=O)[O-])c3N2)CC1 [Example 1-15, (R)-2-((1H-pyrrolo[2,3-b]pyridin-5-yl)oxy)-4-(4-((4′-chloro-5,5-dimethyl-3,4,5,6-tetrahydro-[1,1′-biphenyl]-2-yl)methyl)piper-azin-1-yl)-N-((2-(2-(4-methylpiperazin-1-yl)ethyl)-7-nitroindolin-5-yl)sulfonyl) benzamide] | 15 | 50 | – | – |
| COC(=O)NC[C@H]1COc2cc(S(=O)(=O)NC(=O)c3ccc(N4CCN(CC5=C(c6ccc(Cl)cc6)CC(C)(C)CC5)CC4)cc3Oc3cnc4[nH]ccc4c3)cc([N+](=O)[O-])c2N1 [Example 2-60, methyl (S)-((7-(N-(2-((1H-pyrrolo[2,3-b]pyridin-5-yl)oxy)-4-(4-((4′-chloro-5,5-dimethyl-3,4,5,6-tetrahydro-[1,1′-biphenyl]-2-yl)methyl)piperazin-1-yl)benzoyl)sulfamoyl)-5-nitro-3,4-dihydro-2H-benzo[b][1,4]oxazin-3-yl)meth-yl)carbamate] | 1 | 82 | – | – |
| COC1CCC(C[C@H]2COc3cc(S(=O)(=O)NC(=O)c4ccc(N5CCN(CC6=C(c7ccc(Cl)cc7)CC(C)(C)CC6)CC5)cc4Oc4cnc5[nH]ccc5c4)cc([N+](=O)[O-])c3N2)CC1 (stereo partly drawn) [Example 2-246B, (S)-2-((1H-pyrrolo[2,3-b]pyridin-5-yl)oxy)-4-(4-((4′-chloro-5,5-dimethyl-3,4,5,6-tetra-hydro-[1,1′-biphenyl]-2-yl)methyl)piperazin-1-yl)-N-((3-((4-methoxycyclohexyl)meth-yl)-5-nitro-3,4-dihydro-2H-benzo[b][1,4]oxa-zin-7-yl)sulfonyl)benzamide] | 29 | 13 | – | – |
| CC1(C)CCC(CN2CCN(c3ccc(C(=O)NS(=O)(=O)c4cc5c(c([N+](=O)[O-])c4)N[C@H](CCO)CO5)c(Oc4cnc5[nH]ccc5c4)c3)CC2)=C(c2ccc(Cl)cc2)C1 [Example 2-17, (R)-2-((1H-pyrrolo[2,3-b]pyridin-5-yl)oxy)-4-(4-((4′-chloro-5,5-dimethyl-3,4,5,6-tetra-hydro-[1,1′-biphenyl]-2-yl)methyl)piperazin-1-yl)-N-((3-(2-hydroxyethyl)-5-nitro-3,4-dihydro-2H-benzo[b][1,4]oxazin-7-yl)sulfo-nyl)benzamide] | 8 | 20 | – | – |
| CC1(C)CCC(CN2CCN(c3ccc(C(=O)NS(=O)(=O)c4cc5c(c([N+](=O)[O-])c4)N[C@H](C4CCN(C(=O)OC(C)(C)C)CC4)CO5)c(Oc4cnc5[nH]ccc5c4)c3)CC2)=C(c2ccc(Cl)cc2)C1 [Example 2-222, tert-btuyl (R)-4-(7-(N-(2-((1H-pyrrolo[2,3-b]pyridin-5-yl)oxy)-4-(4-((4′-chloro-5,5-dimethyl-3,4,5,6-tetrahydro-[1,1′-biphenyl]-2-yl)methyl)piperazin-1-yl)benzoyl)sulfamoyl)-5-nitro-3,4-dihydro-2H-benzo[b][1,4]oxazin-3-yl) piperidine-1-carboxylate] | 25 | 3 | – | – |
| CC(=O)N1CCN(C[C@@H]2COc3cc(S(=O)(=O)NC(=O)c4ccc(N5CCN(CC6=C(c7ccc(Cl)cc7)CC(C)(C)CC6)CC5)cc4Oc4cnc5[nH]ccc5c4)cc([N+](=O)[O-])c3N2)CC1 [Example 2-91, (R)-2-((1H-pyrrolo[2,3-b]pyridin-5-yl)oxy)-N-((3-((4-acetylpiperazin-1-yl)methyl)-5-nitro-3,4-dihydro-2H-benzo[b][1,4]oxazin-7-yl)sulfonyl)-4-(4-((4′-chloro-5,5-dimethyl-3,4,5,6-tetrahydro-[1,1′-biphenyl]-2-yl)meth-yl)piperazin-1-yl)benzamide] | 5 | 49 | – | – |
| CC1(C)CCC(CN2CCN(c3ccc(C(=O)NS(=O)(=O)c4cc5c(c([N+](=O)[O-])c4)N[C@H](CCN=S4(=O)CCCC4)CO5)c(Oc4cnc5[nH]ccc5c4)c3)CC2)=C(c2ccc(Cl)cc2)C1 [Example 2-73, (R)-2-((1H-pyrrolo[2,3-b]pyridin-5-yl)oxy)-4-(4-((4′-chloro-5,5-dimethyl-3,4,5,6-tetra-hydro-[1,1′-biphenyl]-2-yl)methyl)piperazin-1-yl)-N-((5-nitro-3-(2-((1-oxidotetrahydro-1λ^6-thiophen-1-ylidene)amino)ethyl)-3,4-dihydro-2H-benzo[b][1,4]oxazin-7-yl)sulfonyl)benzamide] | 79 | 69 | – | – |
| CO[C@H]1CC[C@H](OC[C@@H]2COc3cc(S(=O)(=O)NC(=O)c4ccc(N5CCN(CC6=C(c7ccc(Cl)cc7)CC(C)(C)CC6)CC5)cc4Oc4cnc5[nH]ccc5c4)cc([N+](=O)[O-])c3N2)CC1 [Example 2-251, 2-((1H-pyrrolo[2,3-b]pyridin-5-yl)oxy)-4-(4-((4′-chloro-5,5-dimethyl-3,4,5,6-tetrahydro-[1,1′-biphenyl]-2-yl)methyl)piperazin-1-yl)-N-(((R)-3-((((1r,4R)-4-methoxycyclohex-yl)oxy)methyl)-5-nitro-3,4-dihydro-2H-benzo[b][1,4]oxazin-7-yl)sulfonyl)benzamide] | 1 | 44 | – | – |
| CC1(C)CCC(CN2CCN(c3ccc(C(=O)NS(=O)(=O)c4cc5c(c([N+](=O)[O-])c4)N[C@@H](C(=O)N4CCOCC4)CO5)c(Oc4cnc5[nH]ccc5c4)c3)CC2)=C(c2ccc(Cl)cc2)C1 [Example 2-103] | 16 | 490 | – | – |
| CC1(C)CCC(CN2CCN(c3ccc(C(=O)NS(=O)(=O)c4cc5c(c([N+](=O)[O-])c4)N[C@@H](CN4CCS(=O)(=O)CC4)CO5)c(Oc4cnc5[nH]ccc5c4)c3)CC2)=C(c2ccc(Cl)cc2)C1 [Example 2-121, (S)-2-((1H-pyrrolo[2,3-b]pyridin-5-yl)oxy)-4-(4-((4′-chloro-5,5-dimethyl-3,4,5,6-tetra-hydro-[1,1′-biphenyl]-2-yl)methyl)piperazin-1-yl)-N-((3-((1,1-dioxidothiomorpholino)methyl)-5-nitro-3,4-dihydro-2H-benzo[b][1,4]oxazin-7-yl)sulfonyl)benzamide] | 36 | 48 | – | – |
| CC1(C)CCC(CN2CCN(c3ccc(C(=O)NS(=O)(=O)c4cc5c(c([N+](=O)[O-])c4)N[C@H](CO)CO5)c(Oc4cnc5[nH]ccc5c4)c3)CC2)=C(c2ccc(Cl)cc2)C1 [Example 2-8, (R)-2-((1H-pyrrolo[2,3-b]pyridin-5-yl)oxy)-4-(4-((4′-chloro-5,5-dimethyl-3,4,5,6-tetra-hydro-[1,1′-biphenyl]-2-yl)methyl)piperazin-1-yl)-N-((3-(hydroxymethyl)-5-nitro-3,4-dihydro-2H-benzo[b][1,4]oxazin-7-yl)sulfonyl)benzamide] | 14 | 67 | – | – |
| CC1(C)CCC(CN2CCN(c3ccc(C(=O)NS(=O)(=O)c4cc5c(c([N+](=O)[O-])c4)N[C@H](C4CCC(O)CC4)CO5)c(Oc4cnc5[nH]ccc5c4)c3)CC2)=C(c2ccc(Cl)cc2)C1 (single isomer, unassigned) [Example 2-240B] | – | – | 1 | 1 |
